Values quoted from earlier work in article PMC9851200, “Multiparameter phenotypic screening for endogenous TFEB and TFE3 translocation identifies novel chemical series modulating lysosome function” (Autophagy, 2022).

Legend:
Parameters in all cases: method as in original PKIS2 published data
[1] = molecular target: T1, kinases (KINOMEscan panel) (Homo sapiens, UniProt O14730); conditions: RIOK3; Published KINOMEscan; ref original PKIS2 published data; cited from earlier work
T1 sequence (O14730 1-519): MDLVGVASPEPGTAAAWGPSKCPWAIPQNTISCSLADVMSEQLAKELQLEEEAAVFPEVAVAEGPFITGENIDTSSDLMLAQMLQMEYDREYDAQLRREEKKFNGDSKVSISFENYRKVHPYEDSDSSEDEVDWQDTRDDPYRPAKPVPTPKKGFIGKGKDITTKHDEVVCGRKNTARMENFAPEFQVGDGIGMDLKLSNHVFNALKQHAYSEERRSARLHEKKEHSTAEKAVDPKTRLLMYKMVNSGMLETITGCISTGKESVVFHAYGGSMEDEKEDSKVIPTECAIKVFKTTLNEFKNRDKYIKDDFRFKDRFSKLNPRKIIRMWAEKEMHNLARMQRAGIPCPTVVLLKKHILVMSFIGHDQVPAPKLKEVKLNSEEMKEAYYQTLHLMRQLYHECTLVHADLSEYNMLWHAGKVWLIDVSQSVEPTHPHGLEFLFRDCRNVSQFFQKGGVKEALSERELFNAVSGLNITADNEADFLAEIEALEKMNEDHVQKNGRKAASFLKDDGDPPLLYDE

[2] = molecular target: kinases (KINOMEscan panel) (Homo sapiens, UniProt P08922); conditions: kinase ROS1; Published KINOMEscan; ref original PKIS2 published data; cited from earlier work
Chain of kinases (KINOMEscan panel) (Homo sapiens, UniProt P08922) (P08922 28-2347): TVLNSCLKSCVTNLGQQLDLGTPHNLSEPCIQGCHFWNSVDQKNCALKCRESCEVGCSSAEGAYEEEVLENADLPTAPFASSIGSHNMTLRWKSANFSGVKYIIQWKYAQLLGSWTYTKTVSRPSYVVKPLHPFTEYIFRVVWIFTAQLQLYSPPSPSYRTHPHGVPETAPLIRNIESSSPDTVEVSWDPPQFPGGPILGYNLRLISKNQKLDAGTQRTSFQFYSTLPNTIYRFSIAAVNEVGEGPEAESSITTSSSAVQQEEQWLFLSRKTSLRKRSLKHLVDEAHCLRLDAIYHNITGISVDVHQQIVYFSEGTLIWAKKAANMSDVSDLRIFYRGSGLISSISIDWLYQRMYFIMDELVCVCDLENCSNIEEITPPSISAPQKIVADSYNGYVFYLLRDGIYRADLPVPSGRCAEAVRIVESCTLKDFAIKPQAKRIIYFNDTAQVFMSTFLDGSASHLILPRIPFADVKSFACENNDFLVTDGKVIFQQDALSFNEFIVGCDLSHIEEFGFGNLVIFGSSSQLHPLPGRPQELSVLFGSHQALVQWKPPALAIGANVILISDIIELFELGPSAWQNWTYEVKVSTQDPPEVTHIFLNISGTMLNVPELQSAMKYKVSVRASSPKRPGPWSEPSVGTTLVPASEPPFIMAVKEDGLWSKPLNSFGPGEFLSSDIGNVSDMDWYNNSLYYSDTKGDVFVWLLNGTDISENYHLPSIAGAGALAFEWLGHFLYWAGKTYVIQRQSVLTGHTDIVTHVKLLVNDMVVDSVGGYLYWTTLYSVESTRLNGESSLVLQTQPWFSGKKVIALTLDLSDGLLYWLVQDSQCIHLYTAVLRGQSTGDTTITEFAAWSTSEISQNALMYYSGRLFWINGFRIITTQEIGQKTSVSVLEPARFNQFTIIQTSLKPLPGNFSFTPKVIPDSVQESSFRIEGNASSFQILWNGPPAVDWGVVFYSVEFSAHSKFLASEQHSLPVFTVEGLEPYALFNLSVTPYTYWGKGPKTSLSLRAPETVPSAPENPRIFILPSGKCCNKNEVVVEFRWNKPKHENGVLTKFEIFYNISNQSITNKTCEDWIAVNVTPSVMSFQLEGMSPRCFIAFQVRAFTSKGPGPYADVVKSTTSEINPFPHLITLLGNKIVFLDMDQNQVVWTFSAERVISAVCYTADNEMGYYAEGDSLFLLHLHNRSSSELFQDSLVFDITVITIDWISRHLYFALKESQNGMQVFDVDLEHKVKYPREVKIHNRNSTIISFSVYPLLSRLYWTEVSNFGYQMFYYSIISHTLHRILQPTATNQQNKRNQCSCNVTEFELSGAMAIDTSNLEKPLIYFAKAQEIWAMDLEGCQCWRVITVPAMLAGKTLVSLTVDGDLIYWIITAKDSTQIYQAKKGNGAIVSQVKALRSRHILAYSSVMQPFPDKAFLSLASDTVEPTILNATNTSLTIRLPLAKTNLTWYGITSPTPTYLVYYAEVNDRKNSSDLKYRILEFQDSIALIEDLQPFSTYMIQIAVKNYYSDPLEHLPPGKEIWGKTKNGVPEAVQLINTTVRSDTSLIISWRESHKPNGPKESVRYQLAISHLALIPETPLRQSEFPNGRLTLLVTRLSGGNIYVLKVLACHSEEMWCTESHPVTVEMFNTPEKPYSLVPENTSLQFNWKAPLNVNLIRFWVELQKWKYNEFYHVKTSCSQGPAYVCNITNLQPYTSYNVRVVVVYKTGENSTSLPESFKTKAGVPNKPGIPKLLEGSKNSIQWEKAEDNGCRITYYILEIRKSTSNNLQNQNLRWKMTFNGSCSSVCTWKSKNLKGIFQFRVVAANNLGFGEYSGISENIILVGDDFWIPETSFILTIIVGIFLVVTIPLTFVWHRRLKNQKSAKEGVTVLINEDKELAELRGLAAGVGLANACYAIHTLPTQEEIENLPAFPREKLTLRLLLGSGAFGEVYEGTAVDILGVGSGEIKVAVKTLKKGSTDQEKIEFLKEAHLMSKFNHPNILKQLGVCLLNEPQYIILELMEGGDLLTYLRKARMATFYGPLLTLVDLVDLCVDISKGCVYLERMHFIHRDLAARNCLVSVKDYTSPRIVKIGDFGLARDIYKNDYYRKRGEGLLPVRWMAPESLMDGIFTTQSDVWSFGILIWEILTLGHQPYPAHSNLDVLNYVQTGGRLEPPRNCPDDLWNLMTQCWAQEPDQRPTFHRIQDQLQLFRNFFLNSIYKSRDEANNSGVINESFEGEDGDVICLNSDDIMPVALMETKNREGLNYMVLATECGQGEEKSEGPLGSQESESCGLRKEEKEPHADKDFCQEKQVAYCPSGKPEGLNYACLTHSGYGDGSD

[3] = molecular target: kinases (KINOMEscan panel) (Homo sapiens, UniProt P22455); conditions: Published KINOMEscan; ref original PKIS2 published data; cited from earlier work
Chain of kinases (KINOMEscan panel) (Homo sapiens, UniProt P22455) (P22455 22-802): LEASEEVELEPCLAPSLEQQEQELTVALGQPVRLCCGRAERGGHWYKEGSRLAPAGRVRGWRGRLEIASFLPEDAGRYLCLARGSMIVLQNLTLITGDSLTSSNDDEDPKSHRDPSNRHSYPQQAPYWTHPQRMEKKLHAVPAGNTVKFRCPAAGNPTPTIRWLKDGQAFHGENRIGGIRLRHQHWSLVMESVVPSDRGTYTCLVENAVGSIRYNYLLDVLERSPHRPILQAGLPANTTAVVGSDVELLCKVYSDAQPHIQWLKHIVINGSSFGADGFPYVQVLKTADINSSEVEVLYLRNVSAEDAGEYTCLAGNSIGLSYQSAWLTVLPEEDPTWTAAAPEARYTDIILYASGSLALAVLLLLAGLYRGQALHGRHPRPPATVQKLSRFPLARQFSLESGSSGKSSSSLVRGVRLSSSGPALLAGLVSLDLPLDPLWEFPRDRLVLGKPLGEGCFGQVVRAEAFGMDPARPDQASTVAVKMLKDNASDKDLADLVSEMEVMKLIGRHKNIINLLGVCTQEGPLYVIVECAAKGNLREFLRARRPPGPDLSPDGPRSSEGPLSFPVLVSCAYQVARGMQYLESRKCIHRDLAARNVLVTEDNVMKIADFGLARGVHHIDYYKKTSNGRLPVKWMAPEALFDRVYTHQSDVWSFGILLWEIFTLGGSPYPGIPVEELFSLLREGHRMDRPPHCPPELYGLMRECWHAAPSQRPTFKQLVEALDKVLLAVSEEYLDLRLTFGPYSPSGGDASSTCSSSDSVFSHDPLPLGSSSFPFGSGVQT

[4] = molecular target: T2, kinases (KINOMEscan panel) (Homo sapiens, UniProt Q8WXR4); conditions: MYO3B; Published KINOMEscan; ref original PKIS2 published data; cited from earlier work
T2 sequence (Q8WXR4 1-1341): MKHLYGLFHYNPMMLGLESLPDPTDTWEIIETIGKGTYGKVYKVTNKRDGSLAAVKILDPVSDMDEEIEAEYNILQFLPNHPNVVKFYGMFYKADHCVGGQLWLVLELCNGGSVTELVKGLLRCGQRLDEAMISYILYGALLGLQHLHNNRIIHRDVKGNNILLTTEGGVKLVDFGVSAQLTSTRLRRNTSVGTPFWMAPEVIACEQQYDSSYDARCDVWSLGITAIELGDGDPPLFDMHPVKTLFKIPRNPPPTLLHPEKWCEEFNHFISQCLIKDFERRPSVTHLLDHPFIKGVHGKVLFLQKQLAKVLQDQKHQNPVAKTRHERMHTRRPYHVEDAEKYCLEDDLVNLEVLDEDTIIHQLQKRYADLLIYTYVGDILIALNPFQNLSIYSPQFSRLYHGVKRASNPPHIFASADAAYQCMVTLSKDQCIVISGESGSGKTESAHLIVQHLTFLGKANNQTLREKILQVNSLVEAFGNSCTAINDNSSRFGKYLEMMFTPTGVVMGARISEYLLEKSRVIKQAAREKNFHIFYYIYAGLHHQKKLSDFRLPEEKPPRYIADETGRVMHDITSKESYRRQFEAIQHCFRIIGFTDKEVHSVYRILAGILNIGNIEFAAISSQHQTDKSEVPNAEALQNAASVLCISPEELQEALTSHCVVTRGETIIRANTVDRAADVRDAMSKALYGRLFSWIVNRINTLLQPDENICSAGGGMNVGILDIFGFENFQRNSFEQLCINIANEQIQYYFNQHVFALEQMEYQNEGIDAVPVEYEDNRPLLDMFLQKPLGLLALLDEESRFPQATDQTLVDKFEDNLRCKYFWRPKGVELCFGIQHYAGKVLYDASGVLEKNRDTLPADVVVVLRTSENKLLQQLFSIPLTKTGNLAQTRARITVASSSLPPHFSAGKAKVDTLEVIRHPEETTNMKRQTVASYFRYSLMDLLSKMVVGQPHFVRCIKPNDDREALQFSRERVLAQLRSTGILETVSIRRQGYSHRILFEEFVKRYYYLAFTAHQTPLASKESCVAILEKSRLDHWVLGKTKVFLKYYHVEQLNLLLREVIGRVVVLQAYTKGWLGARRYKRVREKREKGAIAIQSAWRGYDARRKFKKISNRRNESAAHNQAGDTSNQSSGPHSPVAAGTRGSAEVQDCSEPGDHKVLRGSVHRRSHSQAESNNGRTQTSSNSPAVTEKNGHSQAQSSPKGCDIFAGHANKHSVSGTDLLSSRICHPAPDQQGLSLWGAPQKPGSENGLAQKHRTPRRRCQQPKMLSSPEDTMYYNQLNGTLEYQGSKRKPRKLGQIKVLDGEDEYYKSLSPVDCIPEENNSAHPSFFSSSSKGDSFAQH

[5] = molecular target: T3, kinases (KINOMEscan panel) (Homo sapiens, UniProt Q92772); conditions: CDKL2; Published KINOMEscan; ref original PKIS2 published data; cited from earlier work
T3 sequence (Q92772 1-493): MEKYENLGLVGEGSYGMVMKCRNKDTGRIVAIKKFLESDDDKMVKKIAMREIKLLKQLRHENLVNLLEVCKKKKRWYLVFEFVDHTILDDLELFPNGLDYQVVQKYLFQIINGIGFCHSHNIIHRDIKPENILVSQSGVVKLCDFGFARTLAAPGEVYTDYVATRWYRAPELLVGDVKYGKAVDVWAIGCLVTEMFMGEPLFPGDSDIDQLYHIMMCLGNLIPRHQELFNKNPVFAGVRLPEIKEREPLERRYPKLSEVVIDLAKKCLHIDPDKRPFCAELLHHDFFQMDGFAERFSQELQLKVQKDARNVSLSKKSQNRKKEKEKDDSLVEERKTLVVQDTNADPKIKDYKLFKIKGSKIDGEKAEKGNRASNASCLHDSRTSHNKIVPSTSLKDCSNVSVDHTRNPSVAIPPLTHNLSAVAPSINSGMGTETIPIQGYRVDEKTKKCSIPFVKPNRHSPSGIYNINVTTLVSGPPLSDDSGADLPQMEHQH

[6] = molecular target: kinases (KINOMEscan panel) (Homo sapiens, UniProt Q9H1R3); conditions: MYLK2; Published KINOMEscan; ref original PKIS2 published data; cited from earlier work
Chain of kinases (KINOMEscan panel) (Homo sapiens, UniProt Q9H1R3) (Q9H1R3 whole entry): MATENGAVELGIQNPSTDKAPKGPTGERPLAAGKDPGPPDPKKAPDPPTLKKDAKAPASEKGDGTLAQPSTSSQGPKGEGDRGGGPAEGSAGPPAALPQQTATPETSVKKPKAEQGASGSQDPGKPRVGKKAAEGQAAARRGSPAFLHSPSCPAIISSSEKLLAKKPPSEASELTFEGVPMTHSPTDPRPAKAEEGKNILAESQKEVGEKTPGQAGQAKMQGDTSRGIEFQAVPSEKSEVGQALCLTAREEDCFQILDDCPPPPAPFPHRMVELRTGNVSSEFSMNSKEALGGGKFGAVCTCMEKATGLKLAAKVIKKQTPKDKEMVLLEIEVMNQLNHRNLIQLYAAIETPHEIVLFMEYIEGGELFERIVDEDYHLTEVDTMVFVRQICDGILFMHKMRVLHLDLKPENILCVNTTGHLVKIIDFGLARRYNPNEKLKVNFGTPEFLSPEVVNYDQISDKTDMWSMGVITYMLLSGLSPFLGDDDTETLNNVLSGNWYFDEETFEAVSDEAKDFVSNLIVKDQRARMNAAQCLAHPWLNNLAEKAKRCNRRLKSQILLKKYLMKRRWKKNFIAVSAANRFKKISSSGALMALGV

[7] = molecular target: kinases (KINOMEscan panel) (Homo sapiens, UniProt Q9H2X6); conditions: Published KINOMEscan; ref original PKIS2 published data; cited from earlier work
Chain of kinases (KINOMEscan panel) (Homo sapiens, UniProt Q9H2X6) (Q9H2X6 whole entry): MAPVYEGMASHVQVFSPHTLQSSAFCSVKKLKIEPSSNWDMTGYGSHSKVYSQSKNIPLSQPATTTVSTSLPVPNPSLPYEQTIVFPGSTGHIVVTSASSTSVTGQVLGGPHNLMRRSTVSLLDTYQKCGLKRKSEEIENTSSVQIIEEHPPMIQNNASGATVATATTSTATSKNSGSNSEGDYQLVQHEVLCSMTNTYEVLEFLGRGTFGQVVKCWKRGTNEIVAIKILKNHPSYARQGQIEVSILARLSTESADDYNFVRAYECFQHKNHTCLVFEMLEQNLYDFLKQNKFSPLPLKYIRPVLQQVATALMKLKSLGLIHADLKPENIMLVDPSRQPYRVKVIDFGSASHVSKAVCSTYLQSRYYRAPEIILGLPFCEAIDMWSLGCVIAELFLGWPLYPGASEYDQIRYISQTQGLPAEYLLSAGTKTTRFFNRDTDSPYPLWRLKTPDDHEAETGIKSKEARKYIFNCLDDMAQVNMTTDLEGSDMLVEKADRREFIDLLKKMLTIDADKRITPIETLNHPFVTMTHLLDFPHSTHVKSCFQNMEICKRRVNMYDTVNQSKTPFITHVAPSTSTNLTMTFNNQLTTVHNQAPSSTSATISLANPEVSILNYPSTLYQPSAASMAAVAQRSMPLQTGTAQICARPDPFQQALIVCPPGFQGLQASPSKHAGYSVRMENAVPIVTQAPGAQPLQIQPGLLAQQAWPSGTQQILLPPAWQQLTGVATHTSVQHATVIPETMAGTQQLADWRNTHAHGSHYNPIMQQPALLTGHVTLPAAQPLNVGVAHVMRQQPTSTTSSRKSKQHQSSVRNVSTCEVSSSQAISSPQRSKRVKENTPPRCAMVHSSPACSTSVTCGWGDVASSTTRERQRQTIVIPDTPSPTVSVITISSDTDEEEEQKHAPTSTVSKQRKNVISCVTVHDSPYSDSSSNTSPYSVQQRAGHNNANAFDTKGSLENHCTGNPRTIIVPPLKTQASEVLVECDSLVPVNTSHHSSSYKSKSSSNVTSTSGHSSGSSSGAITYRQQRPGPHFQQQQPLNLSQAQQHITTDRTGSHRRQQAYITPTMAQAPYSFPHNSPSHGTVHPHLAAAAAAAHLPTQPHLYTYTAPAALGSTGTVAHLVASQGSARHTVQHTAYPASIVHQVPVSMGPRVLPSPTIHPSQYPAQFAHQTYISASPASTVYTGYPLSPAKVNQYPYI

Cc1cccc(-c2nc(Nc3ccncc3)c3ccccc3n2)n1 [NK215]
KINOMEscan RIOK3 [1]: 35 | KINOMEscan ROS1 [2]: 0 | KINOMEscan FGFR4 [3]: 6 | KINOMEscan MYO3B [4]: 17 | KINOMEscan CDKL2 [5]: 10 | KINOMEscan MYLK2 [6]: 7 | KINOMEscan HIPK2 [7]: 0
